target: T1, human DP1 receptor (Homo sapiens, UniProt Q13258); experiment: DP1 radioligand binding assay ([3H]BWA868C, platelet membranes); conditions: not given
T1 construct: tissue Biological Specialty Corporation; host or cells: human platelet membranes
T1 sequence (Q13258 1-359): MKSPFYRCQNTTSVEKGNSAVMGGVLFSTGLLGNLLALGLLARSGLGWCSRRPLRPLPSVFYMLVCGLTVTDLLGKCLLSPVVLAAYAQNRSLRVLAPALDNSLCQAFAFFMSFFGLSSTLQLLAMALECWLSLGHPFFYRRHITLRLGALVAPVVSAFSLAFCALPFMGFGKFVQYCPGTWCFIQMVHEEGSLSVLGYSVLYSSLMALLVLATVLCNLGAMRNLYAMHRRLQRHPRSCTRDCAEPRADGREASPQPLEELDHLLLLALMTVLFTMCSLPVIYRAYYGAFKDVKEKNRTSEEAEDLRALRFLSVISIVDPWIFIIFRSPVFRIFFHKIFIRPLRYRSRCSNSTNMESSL
Protocol: The ability of a compound to bind to the human DPI receptor was evaluated via a radioligand membrane binding assay using the DP1 selective synthetic ligand [^311]BWA868C. Packed human platelets (Biological Specialty Corporation), were resuspended in 6 volumes of Hepes/HBSS buffer (10 mM Hepes, 1 mM DTT in Hanks Balanced Salt Solution (HBSS)), lysed and centrifuged at 75,000×g to pellet the membranes. Membranes were resuspended in Hepes/HBSS buffer to approximately 12 mg protein/ml. Membranes (20 μg protein/well) are incubated in 96-well plates with 2 nM [^3H]BWA868C and test compound in Assay Buffer (50 mM Hepes, 10 mM MnCl2, 1 mM EDTA, plus or minus 0.2% human serum albumin, pH 7.4) for 60 minutes at room temperature. The reactions are terminated by rapid filtration through Whatman GF/C glass fibre filter plates. The filter plates were pre-soaked in 0.33% polyethylenimine for 30 minutes at room temperature then washed in Wash Buffer (50 mM Hepes, 0.5 M NaCl pH 7.4) prior to harvesting. After harvesting, the filter plates are washed 3 times with 1 ml cold Wash Buffer then dried. Scintillant is then added to the plates and the radioactivity retained on the filters is determined on a Packard TopCount (Perkin Elmer). Specific binding is determined as total radioactive binding minus non-specific binding in the presence of 10 μM BW A868C. IC50s were determined using GraphPad prism analysis of drug titration curves.

Row | IC50 [µM] | Compound
1 | 1 to 30 | COc1ccc(CC(=O)O)cc1-c1ccc(C(F)(F)F)cc1CN(C(=O)OCc1ccccc1)C1CC1 [Compound 1-36, {2′-[(Benzyloxycarbonyl-cyclopropyl-amino)-methyl]-6-methoxy-4′-trifluoromethyl-biphenyl-3-yl}-acetic acid]

same assay, conditions: [3H]BWA868C binding, human platelet membranes; read-out: hDP1

Row | Compound | IC50 [µM]
2 | COc1ccc(CC(=O)O)cc1-c1ccc(C(F)(F)F)cc1CN(C)C(=O)OCc1ccccc1 [Compound 1-27, {2′-[(Benzyloxycarbonyl-methyl-amino)-methyl]-6-methoxy-4′-trifluoromethyl-biphenyl-3-yl}-acetic acid] | 1 to 30
3 | CCN(Cc1cc(C(F)(F)F)ccc1-c1cc(CC(=O)O)ccc1OC)C(=O)OCc1ccccc1 [Compound 1-28, {2′-[(Benzyloxycarbonyl-ethyl-amino)-methyl]-6-methoxy-4′-trifluoromethyl-biphenyl-3-yl}-acetic acid] | 1 to 30
4 | CN(Cc1cc(C(F)(F)F)ccc1-c1cc(CC(=O)O)ccc1F)C(=O)OCc1ccccc1 [Compound 1-29, {2′-[(Benzyloxycarbonyl-methyl-amino)-methyl]-6-fluoro-4′-trifluoromethyl-biphenyl-3-yl}-acetic acid] | 1 to 30
5 | COc1ccc(CC(=O)O)cc1-c1ccc(C(F)(F)F)cc1CN(C(C)=O)C1CCCC1 [Compound 1-31, {2′-[(Acetyl-cyclopentyl-amino)-methyl]-6-methoxy-4′-trifluoromethyl-biphenyl-3-yl}-acetic acid] | 1 to 30
6 | COc1ccc(CC(=O)O)cc1-c1ccc(C(F)(F)F)cc1CN(C(=O)OCc1ccccc1)C1CCC1 [Compound 1-34, {2′-[(Benzyloxycarbonyl-cyclobutyl-amino)-methyl]-6-methoxy-4′-trifluoromethyl-biphenyl-3-yl}-acetic acid] | 1 to 30
7 | CCN(Cc1cc(C(F)(F)F)ccc1-c1cc(CC(=O)O)ccc1OC)C(=O)OCc1cc(Cl)cc(Cl)c1 [Compound 1-38, (2′-{[(3,5-Dichloro-benzyloxycarbonyl)-ethyl-amino]-methyl}-6-methoxy-4′-trifluoromethyl-biphenyl-3-yl)-acetic acid] | 1 to 30
8 | CCN(Cc1cc(C(F)(F)F)ccc1-c1cc(CC(=O)O)ccc1OC)C(=O)OCc1ccccc1Cl [Compound 1-39, (2′-{[(2-Chloro-benzyloxycarbonyl)-ethyl-amino]-methyl}-6-methoxy-4′-trifluoromethyl-biphenyl-3-yl)-acetic acid] | 1 to 30

Now from value to compound:

Row | IC50 [µM] | Compound
9 | 1 to 30 | COc1ccc(CC(=O)O)cc1-c1ccc(C(F)(F)F)cc1CN(C)C(C)=O [Compound 1-1, {2′-[(Acetyl-methyl-amino)-methyl]-6-methoxy-4′-trifluoromethyl-biphenyl-3-yl}-acetic acid]
10 | 1 to 30 | CCN(Cc1cc(C(F)(F)F)ccc1-c1cc(CC(=O)O)ccc1OC)C(C)=O [Compound 1-2, {2′-[(Acetyl-ethyl-amino)-methyl]-6-methoxy-4′-trifluoromethyl-biphenyl-3-yl}-acetic acid]
11 | 1 to 30 | COc1ccc(CC(=O)O)cc1-c1ccc(C(F)(F)F)cc1CN(CC(F)(F)F)C(C)=O [Compound 1-4, (2′-{[Acetyl-(2,2,2-trifluoro-ethyl)-amino]-methyl}-6-methoxy-4′-trifluoromethyl-biphenyl-3-yl)-acetic acid]
12 | 1 to 30 | CCN(Cc1cc(C(F)(F)F)ccc1-c1cc(CC(=O)O)ccc1F)C(C)=O [Compound 1-10, {2′-[(Acetyl-ethyl-amino)-methyl]-6-fluoro-4′-trifluoromethyl-biphenyl-3-yl}-acetic acid]
13 | 1 to 30 | CC(=O)N(Cc1cc(C(F)(F)F)ccc1-c1cc(CC(=O)O)ccc1F)CC(F)(F)F [Compound 1-11, (2′-{[Acetyl-(2,2,2-trifluoro-ethyl)-amino]-methyl}-6-fluoro-4′-trifluoromethyl-biphenyl-3-yl)-acetic acid]
14 | 1 to 30 | COc1ccc(CC(=O)O)cc1-c1ccc(C(F)(F)F)cc1CN(C(C)=O)C1CC1 [Compound 1-12, {2′-[(Acetyl-cyclopropyl-amino)-methyl]-6-methoxy-4′-trifluoromethyl-biphenyl-3-yl}-acetic acid]
15 | 1 to 30 | CCN(Cc1cc(C(F)(F)F)ccc1-c1cc(CC(=O)O)ccc1OC)C(=O)OC [Compound 1-23, {2′-[(Ethyl-methoxycarbonyl-amino)-methyl]-6-methoxy-4′-trifluoromethyl-biphenyl-3-yl}-acetic acid]
16 | 1 to 30 | COc1ccc(CC(=O)O)cc1-c1ccc(C(F)(F)F)cc1CN(C(C)=O)C1CCC1 [Compound 1-30, {2′-[(Acetyl-cyclobutyl-amino)-methyl]-6-methoxy-4′-trifluoromethyl-biphenyl-3-yl}-acetic acid]
17 | 1 to 30 | CCN(Cc1cc(C(F)(F)F)ccc1-c1cc(CC(=O)O)ccc1OC)C(=O)C(F)(F)F [Compound 1-32, (2′-{[Ethyl-(2,2,2-trifluoro-acetyl)-amino]-methyl}-6-methoxy-4′-trifluoromethyl-biphenyl-3-yl)-acetic acid]
18 | 1 to 30 | CCN(Cc1cc(C(F)(F)F)ccc1-c1cc(CC(=O)O)ccc1OC)C(=O)C1CC1 [Compound 1-33, {2′-[(Cyclopropanecarbonyl-ethyl-amino)-methyl]-6-methoxy-4′-trifluoromethyl-biphenyl-3-yl}-acetic acid]

target: T2, human DP2 receptor (Homo sapiens, UniProt Q9Y5Y4); experiment: DP2/CRTH2 radioligand binding assay ([3H]PGD2); conditions: [3H]PGD2 binding, membranes of HEK293 cells expressing human DP2; read-out: hDP2
T2 construct: expressed in transfected cells
T2 sequence (Q9Y5Y4 1-395): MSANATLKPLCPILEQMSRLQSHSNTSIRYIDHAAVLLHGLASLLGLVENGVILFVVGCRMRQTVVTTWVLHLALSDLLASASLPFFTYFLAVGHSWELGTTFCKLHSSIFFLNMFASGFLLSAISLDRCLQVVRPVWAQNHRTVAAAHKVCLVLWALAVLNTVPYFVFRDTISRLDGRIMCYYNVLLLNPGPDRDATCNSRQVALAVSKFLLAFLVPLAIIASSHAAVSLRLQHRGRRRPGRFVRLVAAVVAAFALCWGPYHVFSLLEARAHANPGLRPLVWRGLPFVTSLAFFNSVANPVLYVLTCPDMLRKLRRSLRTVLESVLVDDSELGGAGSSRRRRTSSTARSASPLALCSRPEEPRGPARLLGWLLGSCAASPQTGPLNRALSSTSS
Protocol: The ability of a compound to bind to the human DP2 receptor is assessed via a radioligand binding assay using [^3H]PGD2. HEK293 cells stably expressing recombinant human DP2 are resuspended in 10 mM Hepes, 7.4 containing 1 mM DTT, lysed and centrifuged at 75,000×g to pellet the membranes. The membranes are resuspended in 10 mM Hepes, 7.4 containing 1 mM DTT and 10% glycerol to approximately 5 mg protein/ml. Membranes (2-10 μg protein/well) are incubated in 96-well plates with 1 nM [^3H]PGD2 and test compound in Assay Buffer (50 mM Hepes, 10 mM MnCl2, 1 mM EDTA, plus or minus 0.2% human serum albumin, pH 7.4) for 60 minutes at room temperature. The reactions are terminated by rapid filtration through Whatman GF/C glass fibre filter plates. The filter plates were pre-soaked in 0.33% polyethylenimine for 30 minutes at room temperature then washed in Wash Buffer (50 mM Hepes, 0.5 M NaCl pH 7.4) prior to harvesting. After harvesting, the filter plates are washed 3 times with 1 ml cold Wash Buffer then dried. Scintillant is then added to the plates and the radioactivity retained on the filters is determined on a Packard TopCount (Perkin Elmer). Specific binding is determined as total radioactive binding minus non-specific binding in the presence of 10 μM PGD2. IC50s were determined using GraphPad prism analysis of drug titration curves.

Row | IC50 [nM] | Compound
19 | 1000 to 30000 | CCOC(=O)Cc1ccc(OC)c(-c2ccc(C(=O)O)cc2CN(CC)C(=O)OCc2ccccc2)c1 [Compound 2-14, 2-[(Benzyloxycarbonyl-ethyl-amino)-methyl]-5′-ethoxycarbonylmethyl-2′-methoxy-biphenyl-4-carboxylic acid]
20 | 1000 to 30000 | CCN(Cc1cc(C(F)(F)F)ccc1-c1cc([C@@H](C)C(=O)N2C(=O)O[C@@H](c3ccccc3)[C@H]2C)cc(C(F)(F)F)c1)C(=O)C1CC1 [Compound 2-15, Cyclopropanecarboxylic acid ethyl-{3′-[(R)-1-methyl-2-((4R,5S)-4-methyl-2-oxo-5-phenyl-oxazolidin-3-yl)-2-oxo-ethyl]-4,5′-bis-trifluoromethyl-biphenyl-2-ylmethyl}-amide]
21 | 1000 to 30000 | CCN(Cc1cc(C(F)(F)F)ccc1-c1cc([C@H](C)C(=O)N2C(=O)O[C@@H](c3ccccc3)[C@H]2C)cc(C(F)(F)F)c1)C(=O)C1CC1 [Compound 2-16, Cyclopropanecarboxylic acid ethyl-{3′-[(S)-1-methyl-2((4R,5S)-4-methyl-2-oxo-5-phenyl-oxazolidin-3-yl)-2-oxo-ethyl]-4,5′-bis-trifluoromethyl-biphenyl-2-ylmethyl}-amide]

Row | Compound | IC50 [nM]
22 | CCN(Cc1cc(C(F)(F)F)ccc1-c1cc(CC(=O)O[C@@H]2O[C@H](C(=O)O)[C@@H](O)[C@H](O)[C@H]2O)ccc1OC)C(=O)NCc1ccccc1 [Compound 2-17, (2S,3S,4S,5R,6S)-6-{2-[2′-(3-Benzyl-1-ethyl-ureidomethyl)-6-methoxy-4′-trifluoromethyl-biphenyl-3-yl]-acetoxy}-3,4,5-trihydroxy-tetrahydro-pyran-2-carboxylic acid] | 300 to 1000
